# The supplement of paper PMC11061612
# Tests used:
# [1] = compound: CC(C)n1c(=O)n(C)c2cnc3cc(F)c(-c4ccc(OCCCN5CCCCC5)nc4)cc3c21 [AZD1390]; conditions: max 0.3 µM
# Procedure, shortened: (§1)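 In 1536-well plates, cancer cell lines in 7.5 μl DMEM/F12 or RPMI with 10% FBS spent 24 hours at 37°C and 5% CO2 and were then dosed for 72 hours with final DMSO typically 0.2%. Viability was read by CellTiter-Glo 2.0 luminescence and scaled between blank-well and DMSO-well means. The single-agent IC50 was fitted from dose responses using a logistic curve in a non-linear mixed effects model, and that logistic curve had two parameters.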
# [2] = compound: CC(=O)c1c(C)c2cnc(Nc3ccc(N4CCNCC4)cn3)nc2n(C2CCCC2)c1=O [Palbociclib]; conditions: max 10 µM
# Procedure, shortened: as §1
# [3] = compound: Cn1cnc2c(F)c(Nc3ccc(Br)cc3Cl)c(C(=O)NOCCO)cc21 [Selumetinib]; conditions: max 10 µM
# Procedure, shortened: as §1
# [4] = compound: COc1cc2ncnc(Nc3ccc(F)c(Cl)c3)c2cc1OCCCN1CCOCC1 [Gefitinib]; conditions: max 10 µM
# Procedure, shortened: as §1
# [5] = compound: CC1(C)CCC(CN2CCN(c3ccc(C(=O)NS(=O)(=O)c4ccc(NCC5CCOCC5)c([N+](=O)[O-])c4)c(Oc4cnc5[nH]ccc5c4)c3)CC2)=C(c2ccc(Cl)cc2)C1 [Venetoclax]; conditions: max 1 µM
# Procedure, shortened: as §1
# [6] = compound: COc1cc([C@@H]2c3cc4c(cc3[C@@H](O[C@@H]3O[C@@H]5CO[C@@H](C)O[C@H]5[C@H](O)[C@H]3O)[C@H]3COC(=O)[C@H]23)OCO4)cc(OC)c1O [Etoposide]; conditions: max 10 µM
# Procedure, shortened: as §1
# [7] = compound: C[C@@H](c1ccc2nccn2c1)n1nnc2ncc(-c3cnn(C)c3)nc21 [Savolitinib]; conditions: max 1 µM
# Procedure, shortened: as §1
# [8] = compound: CN(C)CCCOc1ccc(-c2ccc3ncc4c(c3c2)n(C2CCOCC2)c(=O)n4C)cn1 [AZD0156]; conditions: max 3 µM
# Procedure, shortened: as §1
# [9] = compound: CS(=O)(=O)CCNCc1ccc(-c2ccc3ncnc(Nc4ccc(OCc5cccc(F)c5)c(Cl)c4)c3c2)o1 [Lapatinib]; conditions: max 10 µM
# Procedure, shortened: as §1
# [10] = compound: C=CCn1c(=O)c2cnc(Nc3ccc(N4CCN(C)CC4)cc3)nc2n1-c1cccc(C(C)(C)O)n1 [AZD1775]; conditions: max 3 µM
# Procedure, shortened: as §1
# [11] = compound: Cc1cc2ncnn2cc1Nc1ncc2c(n1)n(C1CCOCC1)c(=O)n2C [AZD7648]; conditions: max 10 µM
# Procedure, shortened: as §1
# [12] = compound: COc1cc(Nc2ncc3c(n2)-c2ccc(Cl)cc2C(c2c(F)cccc2OC)=NC3)ccc1C(=O)O [Alisertib]; conditions: max 10 µM
# Procedure, shortened: as §1
# [13] = compound: Cc1nc(-c2cn3c(n2)-c2ccc(-c4cnn(C(C)(C)C(N)=O)c4)cc2OCC3)n(C(C)C)n1 [Taselisib]; conditions: max 10 µM
# Procedure, shortened: as §1
# [14] = compound: COc1nnc2ccc(N3CCC(c4ccc(OCCN5CCN(C)C(=O)[C@H]5C)cc4)CC3)nn12 [AZD5153]; conditions: max 1 µM
# Procedure, shortened: as §1
# [15] = compound: C1CN(CCC1(C(=O)N[C@@H](CCO)C2=CC=C(C=C2)Cl)N)C3=NC=NC4=C3C=CN4 [AZD5363]; conditions: max 10 µM
# Procedure, shortened: as §1
# [16] = compound: O=C(c1cc(Cc2n[nH]c(=O)c3ccccc23)ccc1F)N1CCN(C(=O)C2CC2)CC1 [Olaparib]; conditions: max 10 µM
# Procedure, shortened: as §1
# [17] = compound: C[C@@H]1COCCN1C2=NC(=NC(=C2)C3(CC3)[S@](=N)(=O)C)C4=C5C=CNC5=NC=C4 [AZD6738]; conditions: max 10 µM
# Procedure, shortened: as §1
# [18] = compound: CC1=C(C(=CC=C1)Cl)NC(=O)C2=CN=C(S2)NC3=CC(=NC(=N3)C)N4CCN(CC4)CCO [Dasatinib]; conditions: max 2 µM
# Procedure, shortened: as §1
# [19] = compound: CC(=O)Nc1cccc(-n2c(=O)n(C3CC3)c(=O)c3c(Nc4ccc(I)cc4F)n(C)c(=O)c(C)c32)c1 [Trametinib]; conditions: max 1 µM
# Procedure, shortened: as §1
# [20] = compound: Cc1c2c(nn1C)CSCc1cc(n(C)n1)CSc1cc(c3ccccc3c1)OCCCc1c(C(=O)O)n(C)c3c-2c(Cl)ccc13 [AZD5991]; conditions: max 1 µM
# Procedure, shortened: as §1
# [21] = compound: CN(CC[C@H](CSC1=CC=CC=C1)NC2=C(C=C(C=C2)S(=O)(=O)NC(=O)C3=CC=C(C=C3)N4CCC(CC4)[C@H](C5=CC=CC=C5C6=CC=C(C=C6)Cl)O)S(=O)(=O)C(F)(F)F)CCO [AZD4320]; conditions: max 1 µM
# Procedure, shortened: as §1
# [22] = compound: N#Cc1cnc(Nc2cc(NC[C@H]3CNCCO3)c(C(F)(F)F)cn2)cn1 [SRA737]; conditions: max 10 µM
# Procedure, shortened: as §1
# [23] = compound: CCc1c2c(nc3ccc(O)cc13)-c1cc3c(c(=O)n1C2)COC(=O)[C@]3(O)CC [SN-38]; conditions: max 0.3 µM
# Procedure, shortened: as §1
# [24] = compound: C[C@@H](Nc1cc(F)cc(F)c1)c1cc(C(=O)N(C)C)cc2c(=O)cc(N3CCOCC3)oc12 [AZD8186]; conditions: max 10 µM
# Procedure, shortened: as §1
# [25] = compound: O=C(Nc1ccc2[nH]nc(-c3ccncc3)c2c1)[C@@H]1CCN(CC(=O)N2CCN(c3ccc(-c4ncccn4)cc3)CC2)C1; conditions: max 5 µM
# Procedure, shortened: as §1
# [26] = compound: CC(=O)O[C@H]1C(=O)[C@@]2(C)[C@H]([C@H](OC(=O)c3ccccc3)[C@]3(O)C[C@H](OC(=O)[C@H](O)[C@@H](NC(=O)c4ccccc4)c4ccccc4)C(C)=C1C3(C)C)[C@]1(OC(C)=O)CO[C@@H]1C[C@@H]2O [Paclitaxel]; conditions: max 3 µM
# Procedure, shortened: as §1
# [27] = compound: O=c1[nH]cc(F)c(=O)[nH]1 [5-Fluorouracil]; conditions: max 20 µM
# Procedure, shortened: as §1
# [28] = compound: C[C@@H](Oc1cc(-c2cnn(C3CCNCC3)c2)cnc1N)c1c(Cl)ccc(F)c1Cl [Crizotinib]; conditions: max 10 µM
# Procedure, shortened: as §1
# [29] = compound: NC1(c2ccc(-c3nc4ccn5c(=O)[nH]nc5c4cc3-c3ccccc3)cc2)CCC1 [MK-2206]; conditions: max 10 µM
# Procedure, shortened: as §1
# [30] = compound: Nc1ccn([C@@H]2O[C@H](CO)[C@@H](O)C2(F)F)c(=O)n1 [Gemcitabine]; conditions: max 0.3 µM
# Procedure, shortened: as §1
# [31] = compound: COc1cccc(OCCCN)c1-c1cc(Nc2cnc(C#N)cn2)n[nH]1 [Prexasertib]; conditions: max 1 µM
# Procedure, shortened: as §1
# [32] = compound: C1CC(C1)(C(=O)[O-])C(=O)[O-].N.N.[Pt+2] [Carboplatin]; conditions: max 10 µM
# Procedure, shortened: as §1
# [33] = compound: CC1=CN2[C@@H](C1)C=NC3=CC(=C(C=C3C2=O)OC)OCCCCCOC4=C(C=C5C(=C4)N=C[C@@H]6CC(=CN6C5=O)C)OC [SG3199]; conditions: max 0.001 µM
# Procedure, shortened: as §1
# [34] = compound: CCN(CCO)CCCOc1ccc2c(Nc3cc(CC(=O)Nc4cccc(F)c4)[nH]n3)ncnc2c1 [AZD2811]; conditions: max 1 µM
# Procedure, shortened: as §1
# [35] = compound: COc1cccc2c1C(=O)c1c(O)c3c(c(O)c1C2=O)C[C@@](O)(C(=O)CO)C[C@@H]3O[C@H]1C[C@H](N)[C@H](O)[C@H](C)O1 [Doxorubicin]; conditions: max 1 µM
# Procedure, shortened: as §1
Cell Line,"IC50, cell viability 72 h [1]","IC50, cell viability 72 h [2]","IC50, cell viability 72 h [3]","IC50, cell viability 72 h [4]","IC50, cell viability 72 h [5]","IC50, cell viability 72 h [6]","IC50, cell viability 72 h [7]","IC50, cell viability 72 h [8]","IC50, cell viability 72 h [9]","IC50, cell viability 72 h [10]","IC50, cell viability 72 h [11]","IC50, cell viability 72 h [12]","IC50, cell viability 72 h [13]","IC50, cell viability 72 h [14]","IC50, cell viability 72 h [15]","IC50, cell viability 72 h [16]","IC50, cell viability 72 h [17]","IC50, cell viability 72 h [18]","IC50, cell viability 72 h [19]","IC50, cell viability 72 h [20]","IC50, cell viability 72 h [21]","IC50, cell viability 72 h [22]","IC50, cell viability 72 h [23]","IC50, cell viability 72 h [24]","IC50, cell viability 72 h [25]","IC50, cell viability 72 h [26]","IC50, cell viability 72 h [27]","IC50, cell viability 72 h [28]","IC50, cell viability 72 h [29]","IC50, cell viability 72 h [30]","IC50, cell viability 72 h [31]","IC50, cell viability 72 h [32]","IC50, cell viability 72 h [33]","IC50, cell viability 72 h [34]","IC50, cell viability 72 h [35]"
HCC-78 (Lung Adenocarcinoma),> 0.3 µM,> 10 µM,> 10 µM,> 10 µM,> 1 µM,2.35 µM,> 1 µM,> 3 µM,> 10 µM,1.38 µM,> 10 µM,> 10 µM,5.89 µM,> 1 µM,> 10 µM,> 10 µM,> 10 µM,> 2 µM,> 1 µM,> 1 µM,> 1 µM,> 10 µM,0.00704 µM,> 10 µM,> 5 µM,> 3 µM,> 20 µM,9.58 µM,> 10 µM,0.0327 µM,0.0996 µM,> 10 µM,> 0.001 µM,> 1 µM,0.493 µM
HO-1-N-1 (Oral Cavity Carcinoma),> 0.3 µM,> 10 µM,> 10 µM,8.37 µM,> 1 µM,1.26 µM,> 1 µM,> 3 µM,7.3 µM,1.52 µM,> 10 µM,0.0687 µM,1.96 µM,0.202 µM,> 10 µM,> 10 µM,5.59 µM,0.581 µM,0.417 µM,0.788 µM,> 1 µM,> 10 µM,0.0044 µM,> 10 µM,2.26 µM,< 0.003 µM,17.6 µM,5.58 µM,> 10 µM,0.00622 µM,0.0601 µM,> 10 µM,> 0.001 µM,0.409 µM,0.0842 µM
HOS (Osteosarcoma),> 0.3 µM,> 10 µM,> 10 µM,> 10 µM,> 1 µM,4.34 µM,> 1 µM,> 3 µM,> 10 µM,1.03 µM,> 10 µM,> 10 µM,> 10 µM,0.996 µM,> 10 µM,> 10 µM,8.43 µM,> 2 µM,> 1 µM,> 1 µM,> 1 µM,> 10 µM,0.0294 µM,> 10 µM,> 5 µM,0.0972 µM,> 20 µM,> 10 µM,> 10 µM,> 0.3 µM,0.0536 µM,> 10 µM,> 0.001 µM,> 1 µM,0.792 µM
HT-1376 (Bladder Carcinoma),> 0.3 µM,> 10 µM,> 10 µM,> 10 µM,> 1 µM,> 10 µM,> 1 µM,> 3 µM,> 10 µM,> 3 µM,> 10 µM,> 10 µM,> 10 µM,> 1 µM,> 10 µM,> 10 µM,> 10 µM,> 2 µM,> 1 µM,> 1 µM,> 1 µM,> 10 µM,> 0.3 µM,> 10 µM,> 5 µM,> 3 µM,> 20 µM,> 10 µM,> 10 µM,> 0.3 µM,> 1 µM,> 10 µM,> 0.001 µM,> 1 µM,> 1 µM
TE-15 (Esophageal Squamous Cell Carcinoma),> 0.3 µM,> 10 µM,8.21 µM,,> 1 µM,4.55 µM,> 1 µM,> 3 µM,0.712 µM,1.84 µM,> 10 µM,> 10 µM,2.23 µM,0.658 µM,> 10 µM,> 10 µM,4.29 µM,0.136 µM,0.693 µM,> 1 µM,> 1 µM,4.13 µM,0.00974 µM,> 10 µM,3.95 µM,0.00903 µM,> 20 µM,> 10 µM,> 10 µM,0.0255 µM,0.0406 µM,> 10 µM,> 0.001 µM,> 1 µM,0.884 µM
